Laboratory results from US20220143086A1, “METHOD OF HOMING AND RETENTION OF GAMMADELTA T CELLS, OPTIONALLY WITH NATURAL KILLER CELLS, FOR GENERATING CELL COMPOSITIONS FOR USE IN THERAPY” (Gamida Cell Ltd., priority 2019, published 2022).
Entries after “also recorded” stand apart in the source; their conditions may differ.

Columns and labels:
[1] = system: alphabeta-depleted peripheral blood cells; experiment: T-cell receptor characterization by FACS of CD3+ cells from cultured alphabeta-depleted blood cells; assay type: cell-based, human; settings: 5 mM nicotinamide
Description: (§1) Healthy donor blood units samples were depleted of TCR alphabeta-expressing T-cells using midiMACS™ columns and TCRα/β Kit (Miltenyi Biotec, Gaithersberg, Md.). Alphabeta-T-cell depleted populations were cultured for 12-13 days in VueLife® (Saint-Gobain, Gaithersburg, Md.) bags with medium supplemented with 0 (control) or 5 mM nicotinamide (NAM) and 50 ng/ml IL-2.
To characterize T cell receptor (TCR) expressed on CD3+ cells in culture, CD3 positive cells were purified with CliniMACS™ CD3 reagent (Miltenyi, 273-01, Gaithersburg, Md.) followed by FACS analysis of the percentages of CD3+/γδ+ and CD3+/α/β+ cells. FACS staining and analysis was performed according to standard procedures employing cell surface-specific antibodies.

[2] = system: gammadelta T cells; experiment: Transplantation and in-vivo homing and retention of expanded gammadelta T-cells in irradiated NSG mice; settings: for in-vivo homing and tissue retention of gammadelta cells: cells expanded with 5 mM NAM, CFSE-labeled, i.v. into irradiated NSG mice, 4 days, all tissues analyzed
Description: as §1
CD3+/gammadelta+ cells were purified from culture, as described above, and then marked with CFSE (Invitrogen, Thermo-Fisher, Carlsbad, Calif.). NSG SCID mice were irradiated at 350cGy. The next day following irradiation, 5-6×10^6 CFSE-labeled CD3+/gammdelta-positive cells per mouse from NAM and control (−NAM) cultures were injected intravenously into the mice.
Mice were sacrificed 4 days after cell infusion, and organs excised. Fractions of CFSE stained cells were evaluated by FACS of organ cell suspensions.

[3] = system: gammadelta T cells; experiment: CD62L expression in expanded gammadelta T-cells (FACS); assay type: cell-based, human
Description: as §1
Purified gamma-delta T-cells from NAM-treated and control (−NAM) cultures were stained for CD62L (L-selectin) and analyzed by FACS, using anti-CD62L antibodies.

[4] = cells cultured with 5 mM NAM, 4 days after infusion, irradiated NSG mice

**Q.** Which “gammadelta T cells in CD3+ T-cell fraction” value ([1]; 50 ng/ml IL-2, 12-13 days culture, CD3+ selected, FACS) does the source give for `NC(=O)c1cccnc1` [NAM, nicotinamide] here?
**A.** Its value is “greater than 90%”.

**Q.** And the “effect on expansion of the gammadelta positive component of cultured T-cell populations” value ([1]; 12-13 days culture)?
**A.** Its value is “does not seem to affect”.

**Q.** And the “gammadelta T-cells retained in blood and lung tissue” value [2, 4]?
**A.** Its value is “nearly three-fold increase”.

**Q.** And the “gammadelta T-cells retained in lymphoid tissue (spleen, bone marrow)” value [2, 4]?
**A.** The value was “powerful enhancement”.

**Q.** What about the “in-vivo homing and tissue retention of gammadelta cells” value [2] of the same compound?
**A.** The value was “enhanced incidence of homing and retention; also recorded: striking effect”.

**Q.** And the “in-vivo homing and tissue retention of gammadelta cells” value ([2]; listed as nicotinamide)?
**A.** The value was “greater homing and tissue retention”.

**Q.** And the “CD62L expression (in words)” value ([3]; 5 mM NAM versus identical cells cultured without NAM)?
**A.** The value was “striking enhancement”.

**Q.** What about the “increase in CD62L expression” value ([3]; 5 mM nicotinamide, 12-13 days culture, versus culture without NAM) of the same compound?
**A.** Its value is ~3 fold.
